# Assay results reported in US20130005811A1, “ANTIMICROBIAL TREATMENT FOR SEEDS AND SPROUTS” (priority 2010, published 2013).
# “And” between values parts separate entries of the source, which are not always exact repeats. Equal values may be shown once. Marks after values point to notes of the source that are not given here.
# Tests used:
# S. typhimurium DT 104 = experiment: Inactivation of S. typhimurium DT 104 on alfalfa seeds inoculated with 10^8 CFU/g; type: cell-based, Salmonella typhimurium DT104
# Protocol: Five isolates of Escherichia coli O157:H7, including strain 932 (human isolate), E009 (beef isolate), E0018 (cattle isolate), E0122 (cattle isolate), E0139 (deer jerky isolate); and five isolates of Salmonella typhimurium DT104, including strain H2662 (cattle isolate), 11942A (cattle isolate), 13068A (cattle isolate), 152N17-1 (dairy isolate) and H3279 (human isolate) were used. Nalidixic acid-resistant (50 μg/ml) E. coli O157:H7 were used to facilitate enumeration. Each E. coli O157:H7 and Salmonella strain was grown in tryptic soy broth (TSB, Beckon Dickinson, Sparks, Md.) at 37° C. for 18 hr. Approximately equal cell numbers of each of the five strains were combined and used as a 5-strain mixture with cell numbers being adjusted by spectrophotometric (Spectronic Instruments, Rochester, N.Y.) determination as described in Zhao et al., (2009) J. Food Prot. 72: 928-936, incorporated herein by reference in its entirety. Bacterial cell numbers were confirmed by plating 0.1 ml of serial dilutions (1:10) in 0.1% peptone on tryptic soy agar (TSA, Beckon Dickinson) and Sorbitol MacConkey agar (SMA, Oxoid, Hampshire, UK) for E. coli O157:H7, and TSA and XLD agar (Beckon Dickinson) for Salmonella and incubating all plates at 37° C. for 24 hr, after which colonies were counted.
# Levulinic acid (0.5%) and 0.05% sodium dodecyl sulfate (SDS) obtained from Sigma-Aldrich (St. Louis, Mo.) were tested in combination at 21±2° C. for their antimicrobial activity to E. coli O157:H7 and S. typhimurium on alfalfa seeds as a wash treatment. Calcium hypochlorite (Arch Chemicals, Smyrna, Ga.) at 20,000 μg/ml (ppm) was used as the positive control, and deionized water was used as the negative control.
# Before each trial, 25 ml of sterile tap water and 25 g of alfalfa seeds were added to a WHIRL-PAK® bag (Nasco, Fort Atkinson, Wis.) and pummeled in a stomacher blender at 150 rpm for 1 min. Duplicate 0.1 ml portions of the contents were plated on SMA, XLD, and TSA plates to detect E. coli O157:H7 and Salmonella, and enumerate aerobic bacteria counts according to the protocols described below. Only E. coli O157:H7-negative and Salmonella-negative alfalfa seeds were used. Dry seeds (50 g) were individually placed in a sterilized glass beaker (1 L) and 5 ml of a mixture of E. coli O157:H7 or S. typhimurium DT 104 (high inocula at 10^8-10^9 CFU/ml and low inocula at 10^3-10^4 CFU/ml) was inoculated on the surface of the seeds in each glass beaker under a laminar flow hood. A sterile plastic spoon was used to mix for 2 min the seeds with bacterial suspension. The glass beakers were held in a laminar flow hood for 1 hr, 4 hr, 24 hr, 48 hr, and 72 hr with intermittent mixing by plastic spoon before use for chemical treatment.
# Inactivation of E. coli O157:H7 and Salmonella on Alfalfa Seeds: Inoculated, dried alfalfa seeds (50 g samples) were placed in a 1000 ml glass beaker containing 200 ml of treatment solution and agitated by a magnetic stir bar at 150 ppm at 21° C. for 0, 1, 2, 5, 10, 20, 30, and 60 min. Following treatment, 25 g of seeds was placed in a stomacher bag containing 25 ml 0.1M phosphate buffer, pH 7.2 (PBS) for levulinic acid plus SDS-treated seeds or neutralizing buffer (50×) for calcium hypochlorite-treated seeds and pummeled for 1 min. at 150 rpm in a stomacher blender (Seward, Ltd., Worthing, England). The suspension was serially (1:10) diluted in 0.1% peptone water and 0.1 ml of each dilution was surface-plated in duplicate onto TSA and Sorbitol MacConkey agar containing 50 μg nalidixic acid/ml (TSA-NA and SMA-NA) for E. coli O157:H7, and on TSA and XLD containing ampicillin (32 μg/ml), tetracycline (16 μg/ml) and streptomycin (64 μg/ml) (TSA+ and XLD+) for S. typhimurium DT 104. All plates were incubated at 37° C. for 48 hr.
# E. coli O157:H7 = E. coli O157:H7 on alfalfa seeds with an initial inoculum of 10^4 CFU/g; type: cell-based, Escherichia coli O157:H7
# alfalfa seeds = experiment: Determination of alfalfa seed germination percentage; type: in vivo; conditions: for Germination rate, average: average of 3 replicas
# Protocol: Treated and non-treated seeds (5 g or number of seeds counted per replicate) were placed on the surface of a plastic tray. Three plastic trays were stacked vertically and top tray was filled with 100 ml of sterile deionized water or tap water which fed to the lower trays to maintain uniform moisture content for the seeds. The seeds were incubated at 22° C. for 72 hr. Each evaluation was based on three replicates of 200-400 seeds each. A seed was considered to have germinated if the seed coat was broken and a visible sprout was extending at least 8 mm from the original seed. Swollen seeds or ruptured seeds with sprout tissue still inside were not counted as germinated, because such seeds rarely sprouted completely after an additional 24 hr of incubation.
# [1] = dried at 21° C. for 2 hr, treated for 20 min (10 min in beaker and 10 min in a stomacher bag) at 21° C.
# [2] = treatment for 1 h at 21° C., Ca(OCl)2 pH 11.4
smiles,measurement,setting,value
"[Ca+2].[O-]Cl.[O-]Cl [20,000 ppm, Ca(OCl)2, pH 11.4, Calcium hypochlorite]",S. typhimurium DT 104 counts in seeds,"S. typhimurium DT 104; dried for 4 hr, treated for 0 min (actual time 0 delayed by 20 to 30 seconds)","+^b (below the minimum detection level by direct plating (<0.7 log CFU/ml), but positive by enrichment culture.)"
same,S. typhimurium DT 104 counts in seeds,"S. typhimurium DT 104; dried for 4 hr, treated for 1 min",−^c
same,S. typhimurium DT 104 counts in seeds,"S. typhimurium DT 104; dried for 4 hr, treated for 2 min",−
same,S. typhimurium DT 104 counts in seeds,"S. typhimurium DT 104; dried for 4 hr, treated for 5 min",−
same,S. typhimurium DT 104 counts in seeds,"S. typhimurium DT 104; dried for 4 hr, treated for 10 min",−
same,S. typhimurium DT 104 counts in seeds,"S. typhimurium DT 104; dried for 4 hr, treated for 20 min",−
same,S. typhimurium DT 104 counts in seeds,"S. typhimurium DT 104; dried for 4 hr, treated for 30 min",−
same,S. typhimurium DT 104 counts in seeds,"S. typhimurium DT 104; dried for 4 hr, treated for 60 min",−
same,S. typhimurium DT 104 counts in seeds,"S. typhimurium DT 104; dried for 24 hr, treated for 0 min","+ (below the minimum detection level by direct plating (<0.7 log CFU/ml), but positive by enrichment culture.)"
same,S. typhimurium DT 104 counts in seeds,"S. typhimurium DT 104; dried for 24 hr, treated for 1 min","+ (below the minimum detection level by direct plating (<0.7 log CFU/ml), but positive by enrichment culture.)"
same,S. typhimurium DT 104 counts in seeds,"S. typhimurium DT 104; dried for 24 hr, treated for 2 min",−
same,S. typhimurium DT 104 counts in seeds,"S. typhimurium DT 104; dried for 24 hr, treated for 5 min",−
same,S. typhimurium DT 104 counts in seeds,"S. typhimurium DT 104; dried for 24 hr, treated for 10 min",−
same,S. typhimurium DT 104 counts in seeds,"S. typhimurium DT 104; dried for 24 hr, treated for 20 min",−
same,S. typhimurium DT 104 counts in seeds,"S. typhimurium DT 104; dried for 24 hr, treated for 30 min",−
same,S. typhimurium DT 104 counts in seeds,"S. typhimurium DT 104; dried for 24 hr, treated for 60 min",−
same,S. typhimurium DT 104 counts in seeds,"S. typhimurium DT 104; dried for 48 hr, treated for 0 min","+ (below the minimum detection level by direct plating (<0.7 log CFU/ml), but positive by enrichment culture.)"
same,S. typhimurium DT 104 counts in seeds,"S. typhimurium DT 104; dried for 48 hr, treated for 1 min","+ (below the minimum detection level by direct plating (<0.7 log CFU/ml), but positive by enrichment culture.)"
same,S. typhimurium DT 104 counts in seeds,"S. typhimurium DT 104; dried for 48 hr, treated for 2 min",−
same,S. typhimurium DT 104 counts in seeds,"S. typhimurium DT 104; dried for 48 hr, treated for 5 min",−
same,S. typhimurium DT 104 counts in seeds,"S. typhimurium DT 104; dried for 48 hr, treated for 10 min","+ (below the minimum detection level by direct plating (<0.7 log CFU/ml), but positive by enrichment culture.)"
same,S. typhimurium DT 104 counts in seeds,"S. typhimurium DT 104; dried for 48 hr, treated for 20 min",−
same,S. typhimurium DT 104 counts in seeds,"S. typhimurium DT 104; dried for 48 hr, treated for 30 min",−
same,S. typhimurium DT 104 counts in seeds,"S. typhimurium DT 104; dried for 48 hr, treated for 60 min",−
same,S. typhimurium DT 104 counts in seeds,"S. typhimurium DT 104; dried for 72 hr, treated for 0 min",−
same,S. typhimurium DT 104 counts in seeds,"S. typhimurium DT 104; dried for 72 hr, treated for 1 min",−
same,S. typhimurium DT 104 counts in seeds,"S. typhimurium DT 104; dried for 72 hr, treated for 2 min",−
same,S. typhimurium DT 104 counts in seeds,"S. typhimurium DT 104; dried for 72 hr, treated for 5 min",−
same,S. typhimurium DT 104 counts in seeds,"S. typhimurium DT 104; dried for 72 hr, treated for 10 min",−
same,S. typhimurium DT 104 counts in seeds,"S. typhimurium DT 104; dried for 72 hr, treated for 20 min","+ (below the minimum detection level by direct plating (<0.7 log CFU/ml), but positive by enrichment culture.)"
same,S. typhimurium DT 104 counts in seeds,"S. typhimurium DT 104; dried for 72 hr, treated for 30 min","+ (below the minimum detection level by direct plating (<0.7 log CFU/ml), but positive by enrichment culture.)"
same,S. typhimurium DT 104 counts in seeds,"S. typhimurium DT 104; dried for 72 hr, treated for 60 min",−
same,Salmonella detection after treatment,"S. typhimurium DT 104; seeds dried for 4 hr, after 5 min of treatment",no detectable Salmonella
same,Salmonella detection after treatment,"S. typhimurium DT 104; seeds dried for 24 hr, 48 hr, or 72 hr, treated for 5 min",levels only detectable by selective enrichment culture
same,E. coli O157:H7 on treated seeds by direct plating method,E. coli O157:H7; 10 min in glass beaker then pummeled 10 min in stomacher bag,negative
same,E. coli O157:H7 count in sample No. 1-10 (seeds),E. coli O157:H7; [1],−
same,E. coli O157:H7 count in sample No. 1-10 (treated supernatant),E. coli O157:H7; [1],−
same,E. coli O157:H7 in solutions used for treatment,E. coli O157:H7; enrichment culture after use,negative
same,E. coli O157:H7 detection in samples treated for 10 min,E. coli O157:H7; none pathogen-positive by direct plating,sporadically positive by enrichment culture assay
same,Effect on alfalfa seed germination,"alfalfa seeds; 1 hr at 21° C., compared to tap water",substantially reduced germination percentage
same,"Germination rate, average",alfalfa seeds; [2],47%
same,"Germination rate, average","alfalfa seeds; treatment for 1 h at 21° C., listed as 20,000 ppm calcium hypochlorite",47.3%
same,"Germination rate, average","alfalfa seeds; treatment for 1 h at 21° C., row",47%
same,"Germination Ratio (Percentage), per replica",alfalfa seeds; [2],62% and 34% and 46%
same,"Germination Ratio (germinated/total seeds), per replica",alfalfa seeds; [2],124/200 and 68/200 and 92/200
